Results reported in patent US4532258A, “Certain cyclopropane carboxylic acid esters and their pesticidal use” (priority 1979, dated 1985).
In brackets after ≈: the same amount, converted by molar mass.

Experiments:
Fish toxicity test = type: in vivo; conditions: guppy, water, female guppies, 20° C., 50% killed, read-out: TLm (medium tolerance limit)
Method: The mixture was stirred well to prepare a test water. Ten female guppies from 3 to 4 months of age were released into the test water and maintained at 20° C. The concentration of the test compound at which 50% of the guppies were killed during the ensuring 48 hours was determined. [This concentration is referred to as TLm (medium tolerance limit, ppm)].

[1] = Light stability test (residue after exposure to ultraviolet light); type: physicochemical; conditions: UV 3600 Å, 31°-35° C.
Method: Into 2.0 ml of acetone were dissolved 80 mg of each test compound. A 5 μl portion of the solution was taken and spread on a glass plate (Micro Standard Cover Glass, 18 m/m No. 1, 200 pcs, Matsunami Glass Ind., Ltd.) and the acetone was evaporated. The specimen was exposed to ultraviolet light from a fluorescent lamp (Tokyo Shibaura Electric Co., Ltd., FL20BL, glow-type, 100 V, 24.5 W, wavelength=3600 Å) which was fixed just above the specimen at a distance of 11 cm at a temperature of 31°-35° C. for a predetermined exposure time. The test liquid was washed away with 1.0 ml of methanol containing 0.04% of dioctyl phthalate as an internal reference and high-speed liquid chromatography was carried out on the washings to determine the residual amount of the test compound.

Structure (SMILES) | LC50 at 48 h (Fish toxicity test) [µg/mL] | Residue (%) ([1]; exposure time 3.5 hrs.) | Residue (%) ([1]; exposure time 3 days) | Residue (%) ([1]; exposure time 5 days)
CC1(C)[C@H](C(=O)OC(C(N)=S)c2cccc(Oc3ccccc3)c2)[C@@H]1CC(Cl)(Cl)Cl (relative stereo) [(27) [Cis-isomer]] | ≥ 10 | – | – | –
CC1(C)C(CC(Cl)(Cl)Cl)C1C(=O)OC(C#N)c1cccc(OC=C(Cl)Cl)c1 (stereo not drawn) [(34) [Mixture]] | – | 100 | 88 | 44
C#CC(OC(=O)[C@@H]1[C@H](CC(C)(Cl)Cl)C1(C)C)c1cccc(Oc2ccccc2)c1 (relative stereo) [(13) [Cis-isomer]] | ≥ 10 | – | – | –
C#CC(OC(=O)[C@@H]1[C@@H](CC(Cl)(Cl)Cl)C1(C)C)c1cccc(Oc2ccccc2)c1 (relative stereo) [(11) [Trans-isomer]] | ≥ 10 | – | – | –
CC1(C)[C@H](CC(Cl)(Cl)Cl)[C@H]1C(=O)OC(C#N)c1cccc(Oc2ccccc2)c1 (relative stereo) [(7) [Trans-isomer]] | 0.5 to 10 (≈ 1.1 to 22.1 µM) | – | – | –
C=CCC1=C(C)C(OC(=O)C2C(C=C(C)C)C2(C)C)CC1=O (stereo not drawn) [Allethrin, reference compound] | – | 14 | 0 | –
